This test has as its system blood calcium. The test can be described thus: Blood calcium (calcemia) in rats after administration of calcitonin compositions. The class given is in vivo, female Wistar rats. The following applies: oral, 72 IU per animal, FIG. 5. As to the method: The study was carried out on female Wistar rats weighing 150 g, divided into groups of 4 rats. Oral administration was effected using an esophageal tube in a volume of 300 μl, corresponding to […] administered per animal.
A volume of 100 μl of an aqueous solution of calcitonin with a titer of 20 IU/ml, corresponding to a dose of 2 IU of calcitonin per animal, was administered subcutaneously to a positive control group.
A volume of 300 μl of an aqueous solution of calcitonin with a titer of 240 IU/ml, corresponding to 72 IU per animal, was administered orally to a negative control group.
The animals were fasted (water diet) 24 hours before the experiment. Blood samples were taken retro-orbitally under general anesthetic at T0 (before administration), T0+1 h, T0+2 h or T0+3 h, T0+5 h. 50 μl of blood are collected in microcapillary tubes containing heparin.
The blood calcium and pH are measured immediately after sample collection, directly in the microcapillary tube, by means of a CIBA-CORNING model 634 automatic analyzer to give the calcemia.

As for “calcitonin [non-encapsulated calcitonin solution]”, the decrease of calcemia result is listed as “not observed”.

The record behind these values is US6770292B2, “Pharmaceutical compositions for oral administration” (Capsules, priority 2000, dated 2004).
